Experimental data published in patent US20230023726A1, “PHARMACEUTICAL COMPOSITION COMPRISING PEPTIDE THAT INHIBITS INTERACTION OF P53 AND FOXO4” (SUPADELIXIR INC., priority 2019, published 2023).

What was measured:
Assay type in all cases: cell-based, human
[1] = system: interaction between p53 and FOXO4; assay: in situ PLA (proximity ligation assay) of the physical binding between p53 and FOXO4 in H2O2-treated HaCaT cells; conditions: H2O2 200 μM, peptide 20 μM, 1 hour; for inhibition of the interaction between p53 and FOXO4 (PLA signals): in comparison with the control group
Procedure: After treating cells with the peptides of the present invention, the effects thereof on the physical binding between p53 and FOXO4 were evaluated through an in situ PLA (proximity ligation assay) method. HaCaT cells (human keratinocytes, CLS) were added at 4.5×10^4 cells per well, along with a DMEM containing 10% fetal bovine serum, to each well of a 24-well microplate and then cultured at 37° C. in a 5% CO2 incubator for 24 hours. H2O2 and the peptide solutions of Example 2 and H2O2 were added thereto so that the concentrations of H2O2 and each peptide in the medium were 200 μM and 20 μM respectively, followed by incubating for 1 hour under the same condition. As a control group, an untreated group (indicated by “control” in FIG. 1) and a group treated with H2O2 alone (indicated by “-” in FIG. 1) were used. The cells of each well were washed with PBS, fixed by treating with 2% formaldehyde for 15 minutes, and then treated with 0.1% TritonX-100 for 5 minutes to increase antibody permeability into the cells. Anti-p53 polyclonal antibody (Abcam, UK) and anti-FOXO4 polyclonal antibody (Santa Cruz, Calif., USA) were added thereto. After the PLA probe was added thereto using the in situ PLA kit (Sigma-Aldrich), hybridization, ligation, amplification and mounting steps were carried out according to the manufacturer's protocol. Each physical interaction between p53 and FOXO4 was quantified by measuring the luminescence signals (PLA signals) detected in each cell with a confocal laser microscope (Olympus fluoview FW1000; Olympus, Tokyo, Japan).

[2] = system: interaction between p53 and FOXO4; assay: in situ PLA of p53-FOXO4 binding with ERK inhibitor (PD98059) and SHP2 inhibitor (NSC878777) in HaCaT cells; conditions: H2O2 200 μM, 1 hour, FIG. 2
Procedure: After treating cells with the peptide of the present invention (the peptide of SEQ ID NO: 3), H2O2, a ERK inhibitor (PD98059), and a SHP2 inhibitor (NSC878777), the effects thereof on the physical binding between p53 and FOXO4 were evaluated through an in situ PLA (proximity ligation assay) method. HaCaT cells (human keratinocytes, CLS) were added at 4.5×10^4 cells per well, along with a DMEM containing 10% fetal bovine serum, to each well of a 24-well microplate and then cultured at 37° C. in a 5% CO2 incubator for 24 hours. The cells were treated with H2O2 (200 μM) and the peptide of SEQ ID NO: 3 (20 μM); or PD98059 (10 μM) or NSC878777 (10 μM) was additionally treated to the cells treated with H2O2 (200 μM) and the peptide of SEQ ID NO: 3 (20 μM), followed by incubating for 1 hour under the same condition. As a control group, an untreated group (indicated by “control” in FIG. 2) and a group treated with H2O2 alone were used. The cells of each well were washed with PBS, fixed by treating with 2% formaldehyde for 15 minutes, and then treated with 0.1% TritonX-100 for 5 minutes to increase antibody permeability into the cells. […] Each physical interaction between p53 and FOXO4 was quantified by measuring the luminescence signals (PLA signals) detected in each cell with a confocal laser microscope (Olympus fluoview FW1000; Olympus, Tokyo, Japan).

[3] = system: senescent ARPE-19 cells (retinal pigment epithelial cells); assay: apoptosis of H2O2-induced senescent cells, X-Gal (Senescence β-Galactosidase) staining, number of remaining senescent cells; conditions: ARPE-19, H2O2 25 μM 24 hours, then peptide 0.2 μM, 2 μM and 20 μM 24 hours; versus H2O2 alone ("-" group); FIGS. 3 and 4
Procedure: In order to evaluate the activity on the apoptosis of senescent cells by the treatment with the peptide of the present invention (the peptide of SEQ ID NO: 3) for 24 hours after inducing senescence by treating cells with H2O2, the X-Gal staining was carried out to measure the number of the remaining senescent cells. ARPE-19 cells (retinal pigment epithelial cells) were added at the density of 80% per well, along with a DMEM containing 10% fetal bovine serum, to each well of a 12-well microplate and then cultured at 37° C. in a 5% CO2 incubator for 24 hours. H2O2 was added thereto so that the concentration thereof in the medium was 25 μM, followed by incubating for 24 hours under the same condition. Thereafter, the cells in each well were washed with PBS and the peptide solution of Example 2 was added thereto so that the concentration of the peptide of SEQ ID NO: 3 was 0.2 μM, 2 μM, and 20 μM respectively, followed by incubating for 24 hours under the same condition. As a control group, an untreated group (indicated as “control” in FIGS. 3 and 4) and a group treated with H2O2 alone (indicated by “-” in FIGS. 3 and 4) were used. […] The bluish green color development detected in the senescence-induced cells was measured with a phase-contrast microscope (Olympus, Tokyo, Japan), and each number of senescent cells was quantified.

Substance | inhibition of the interaction between p53 and FOXO4 (PLA signals) ([1]; FIG. 1) | extent of inhibition of the interaction between p53 and FOXO4 in comparison with the control group (PLA signals) ([1]; FIG. 1) | further results
Leu-Ala-Asp (LAD) [Pep 4] | remarkably inhibited | – | inhibition of the interaction between p53 and FOXO4 (PLA signals) ([1]; FIG. 1, listed as SEQ ID NO: 4): particularly excellent activity
Leu-Cys-Asp (LCD) [Pep 13] | remarkably inhibited | – | inhibition of the interaction between p53 and FOXO4 (PLA signals) ([1]; FIG. 1, listed as SEQ ID NO: 13): particularly excellent activity
Leu-Gln-Asp (LQD) [Pep 5] | remarkably inhibited | – | inhibition of the interaction between p53 and FOXO4 (PLA signals) ([1]; FIG. 1, listed as SEQ ID NO: 5): particularly excellent activity
Leu-Glu-Asp (LED) [Pep 1] | remarkably inhibited | two or more times | inhibition of the interaction between p53 and FOXO4 (PLA signals) ([1]; FIG. 1, listed as SEQ ID NO: 1): particularly excellent activity
Leu-Gly-Asp (LGD) [Pep 3] | remarkably inhibited | – | inhibition of the interaction between p53 and FOXO4 (PLA signals) ([1]; FIG. 1, listed as SEQ ID NO: 3): particularly excellent activity; dependence of the peptide's inhibitory signal on ERK and SHP2 ([2]; peptide 20 μM plus PD98059 10 μM or NSC878777 10 μM): dependent on ERK and SHP2 activation; inhibition of the interaction between p53 and FOXO4 (PLA signals) ([2]; peptide 20 μM): significantly inhibited; induction of apoptosis of senescent cells (number of remaining senescent cells) [3]: significantly induced the apoptosis of senescent cells
Leu-His-Asp (LHD) [Pep 14] | remarkably inhibited | two or more times | inhibition of the interaction between p53 and FOXO4 (PLA signals) ([1]; FIG. 1, listed as SEQ ID NO: 14): particularly excellent activity
Leu-Ile-Asp (LID) [Pep 15] | remarkably inhibited | two or more times | inhibition of the interaction between p53 and FOXO4 (PLA signals) ([1]; FIG. 1, listed as SEQ ID NO: 15): particularly excellent activity
Leu-Leu-Asp (LLD) [Pep 8] | remarkably inhibited | – | inhibition of the interaction between p53 and FOXO4 (PLA signals) ([1]; FIG. 1, listed as SEQ ID NO: 8): particularly excellent activity
Leu-Lys-Asp (LKD) [Pep 7] | remarkably inhibited | – | inhibition of the interaction between p53 and FOXO4 (PLA signals) ([1]; FIG. 1, listed as SEQ ID NO: 7): particularly excellent activity
Leu-Phe-Asp (LFD) [Pep 11] | remarkably inhibited | two or more times | inhibition of the interaction between p53 and FOXO4 (PLA signals) ([1]; FIG. 1, listed as SEQ ID NO: 11): particularly excellent activity
Leu-Pro-Asp (LPD) [Pep 17] | remarkably inhibited | two or more times | inhibition of the interaction between p53 and FOXO4 (PLA signals) ([1]; FIG. 1, listed as SEQ ID NO: 17): particularly excellent activity
Leu-Thr-Asp (LTD) [Pep 18] | remarkably inhibited | two or more times | inhibition of the interaction between p53 and FOXO4 (PLA signals) ([1]; FIG. 1, listed as SEQ ID NO: 18): particularly excellent activity
Leu-Trp-Asp (LWD) [Pep 19] | remarkably inhibited | – | inhibition of the interaction between p53 and FOXO4 (PLA signals) ([1]; FIG. 1, listed as SEQ ID NO: 19): particularly excellent activity
Leu-Tyr-Asp (LYD) [Pep 9] | remarkably inhibited | two or more times | inhibition of the interaction between p53 and FOXO4 (PLA signals) ([1]; FIG. 1, listed as SEQ ID NO: 9): particularly excellent activity
Leu-Val-Asp (LVD) [Pep 20] | remarkably inhibited | two or more times | inhibition of the interaction between p53 and FOXO4 (PLA signals) ([1]; FIG. 1, listed as SEQ ID NO: 20): particularly excellent activity
